Measured values published in patent US20230085307A1, “PYRIDAZINONE COMPOUND AND HERBICIDE” (NISSAN CHEMICAL CORPORATION, priority 2019, published 2023).

What was measured:
barnyard grass [1] = test: Test Example 3: herbicidal effect by foliage application, Wagner pot (Table 18, symbol H); type: in vivo, barnyard grass (Echinochloa crus-galli); settings: 320 g/ha
Outline: (§1)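 Plants were sown in alluvial soil held under 0.1–0.5 cm standing water and grown 14 days in a greenhouse at 25–30 °C. An emulsifiable formulation, water-diluted to the set dose, was then sprayed onto the foliage, and effects were scored three weeks later using previously defined criteria.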

Chinese sprangletop = test: Test Example 3: herbicidal effect by foliage application, Wagner pot (Table 18, symbol D); type: in vivo, chinese sprangletop (Leptochloa chinensis); settings: 320 g/ha
Outline: as §1

rice flat sedge = test: Test Example 3: herbicidal effect by foliage application, Wagner pot (Table 18, symbol E); type: in vivo, rice flat sedge (Cyperus iria); settings: 320 g/ha
Outline: as §1

southern crabgrass [2] = test: Test Example 4: herbicidal effect by soil treatment (Table 19, symbol F); type: in vivo, southern crabgrass (Digitaria ciliaris); settings: amount of applied herbicide 320 g/ha
Outline: (§2)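 In this soil treatment, the formulated compound reached the seeds only through the soil: seeds were buried about 1.5 cm deep in sterilized diluvial soil, then the diluted emulsion was sprayed over the surface. After three weeks at 25° C. to 30° C. in a greenhouse, effects were graded on criteria from an earlier test.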

green foxtail [3] = test: Test Example 4: herbicidal effect by soil treatment (Table 19, symbol G); type: in vivo, green foxtail (Setaria viridis); settings: amount of applied herbicide 320 g/ha
Outline: as §2

barnyard grass [4] = test: Test Example 4: herbicidal effect by soil treatment (Table 19, symbol H); type: in vivo, barnyard grass (Echinochloa crus-galli); settings: amount of applied herbicide 320 g/ha
Outline: as §2

wild oat [5] = test: Test Example 4: herbicidal effect by soil treatment (Table 19, symbol I); type: in vivo, wild oat (Avena fatua); settings: amount of applied herbicide 320 g/ha
Outline: as §2

blackgrass [6] = test: Test Example 4: herbicidal effect by soil treatment (Table 19, symbol J); type: in vivo, blackgrass (Alopecurus myosuroides); settings: amount of applied herbicide 320 g/ha
Outline: as §2

Italian ryegrass [7] = test: Test Example 4: herbicidal effect by soil treatment (Table 19, symbol K); type: in vivo, Italian ryegrass (Lolium multiflorum); settings: amount of applied herbicide 320 g/ha
Outline: as §2

windgrass [8] = test: Test Example 4: herbicidal effect by soil treatment (Table 19, symbol L); type: in vivo, windgrass (Apera spica-venti); settings: amount of applied herbicide 320 g/ha
Outline: as §2

velvetleaf [9] = test: Test Example 4: herbicidal effect by soil treatment (Table 19, symbol M); type: in vivo, velvetleaf (Abutilon theophrasti); settings: amount of applied herbicide 320 g/ha
Outline: as §2

redroot pigweed [10] = test: Test Example 4: herbicidal effect by soil treatment (Table 19, symbol N); type: in vivo, redroot pigweed (Amaranthus retroflexus); settings: amount of applied herbicide 320 g/ha
Outline: as §2

lambsquarters [11] = test: Test Example 4: herbicidal effect by soil treatment (Table 19, symbol O); type: in vivo, lambsquarters (Chenopodium album); settings: amount of applied herbicide 320 g/ha
Outline: as §2

chickweed [12] = test: Test Example 4: herbicidal effect by soil treatment (Table 19, symbol P); type: in vivo, common chickweed (Stellaria media); settings: amount of applied herbicide 320 g/ha
Outline: as §2

false cleavers [13] = test: Test Example 4: herbicidal effect by soil treatment (Table 19, symbol Q); type: in vivo, false cleavers (Galium spurium); settings: amount of applied herbicide 320 g/ha
Outline: as §2

persian speedwell [14] = test: Test Example 4: herbicidal effect by soil treatment (Table 19, symbol R); type: in vivo, Persian speedwell (Veronica persica); settings: amount of applied herbicide 320 g/ha
Outline: as §2

southern crabgrass [15] = test: Test Example 5: herbicidal effect by foliage application, plastic box (Table 20, symbol F); type: in vivo, southern crabgrass (Digitaria ciliaris); settings: foliage application, 320 g/ha, three weeks after application
Outline: (§3)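 Plants were sown into sterilized diluvial soil under about 1.5 cm cover and kept in a greenhouse at 25° C. to 30° C. Fourteen days on, foliage received an even spray of the diluted emulsion. Herbicidal or crop effect was judged three weeks afterwards.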

green foxtail [16] = test: Test Example 5: herbicidal effect by foliage application, plastic box (Table 20, symbol G); type: in vivo, green foxtail (Setaria viridis); settings: foliage application, 320 g/ha, three weeks after application
Outline: as §3

barnyard grass [17] = test: Test Example 5: herbicidal effect by foliage application, plastic box (Table 20, symbol H); type: in vivo, barnyard grass (Echinochloa crus-galli); settings: foliage application, 320 g/ha, three weeks after application
Outline: as §3

wild oat [18] = test: Test Example 5: herbicidal effect by foliage application, plastic box (Table 20, symbol I); type: in vivo, wild oat (Avena fatua); settings: foliage application, 320 g/ha, three weeks after application
Outline: as §3

blackgrass [19] = test: Test Example 5: herbicidal effect by foliage application, plastic box (Table 20, symbol J); type: in vivo, blackgrass (Alopecurus myosuroides); settings: foliage application, 320 g/ha, three weeks after application
Outline: as §3

Italian ryegrass [20] = test: Test Example 5: herbicidal effect by foliage application, plastic box (Table 20, symbol K); type: in vivo, Italian ryegrass (Lolium multiflorum); settings: foliage application, 320 g/ha, three weeks after application
Outline: as §3

windgrass [21] = test: Test Example 5: herbicidal effect by foliage application, plastic box (Table 20, symbol L); type: in vivo, windgrass (Apera spica-venti); settings: foliage application, 320 g/ha, three weeks after application
Outline: as §3

velvetleaf [22] = test: Test Example 5: herbicidal effect by foliage application, plastic box (Table 20, symbol M); type: in vivo, velvetleaf (Abutilon theophrasti); settings: foliage application, 320 g/ha, three weeks after application
Outline: as §3

redroot pigweed [23] = test: Test Example 5: herbicidal effect by foliage application, plastic box (Table 20, symbol N); type: in vivo, redroot pigweed (Amaranthus retroflexus); settings: foliage application, 320 g/ha, three weeks after application
Outline: as §3

lambsquarters [24] = test: Test Example 5: herbicidal effect by foliage application, plastic box (Table 20, symbol O); type: in vivo, lambsquarters (Chenopodium album); settings: foliage application, 320 g/ha, three weeks after application
Outline: as §3

chickweed [25] = test: Test Example 5: herbicidal effect by foliage application, plastic box (Table 20, symbol P); type: in vivo, common chickweed (Stellaria media); settings: foliage application, 320 g/ha, three weeks after application
Outline: as §3

false cleavers [26] = test: Test Example 5: herbicidal effect by foliage application, plastic box (Table 20, symbol Q); type: in vivo, false cleavers (Galium spurium); settings: foliage application, 320 g/ha, three weeks after application
Outline: as §3

persian speedwell [27] = test: Test Example 5: herbicidal effect by foliage application, plastic box (Table 20, symbol R); type: in vivo, Persian speedwell (Veronica persica); settings: foliage application, 320 g/ha, three weeks after application
Outline: as §3

Row | SMILES | herbicidal effect on H (barnyard grass), rating 0-5 (barnyard grass [1]) | herbicidal effect on D (Chinese sprangletop), rating 0-5 (Chinese sprangletop) | herbicidal effect on E (rice flat sedge), rating 0-5 (rice flat sedge) | herbicidal effect rating, F: southern crabgrass (southern crabgrass [2]) | herbicidal effect rating, G: green foxtail (green foxtail [3]) | herbicidal effect rating, H: barnyard grass (barnyard grass [4]) | herbicidal effect rating, I: wild oat (wild oat [5]) | herbicidal effect rating, J: blackgrass (blackgrass [6]) | herbicidal effect rating, K: Italian ryegrass (Italian ryegrass [7]) | herbicidal effect rating, L: windgrass (windgrass [8]) | herbicidal effect rating, M: velvetleaf (velvetleaf [9]) | herbicidal effect rating, N: redroot pigweed (redroot pigweed [10]) | herbicidal effect rating, O: lambsquarters (lambsquarters [11]) | herbicidal effect rating, P: chickweed (chickweed [12]) | herbicidal effect rating, Q: false cleavers (false cleavers [13]) | herbicidal effect rating, R: persian speedwell (persian speedwell [14]) | herbicidal effect grade, F: southern crabgrass (southern crabgrass [15]) | herbicidal effect grade, G: green foxtail (green foxtail [16]) | herbicidal effect grade, H: barnyard grass (barnyard grass [17]) | herbicidal effect grade, I: wild oat (wild oat [18]) | also measured
1 | CCCCOc1ccccc1-c1sc2ccccc2c1-c1c(OC(=O)CCC)c(C)nn(C)c1=O [1-023] | 1 (Herbicidal rate of 5% or more and less than 20%) | 0 (Herbicidal rate of 5% or less (almost no effect)) | 3 (Herbicidal rate of 40% or more and less than 70%) | 0 (Herbicidal rate of 5% or less (almost no effect)) | 2 (Herbicidal rate of 20% or more and less than 40%) | 0 (Herbicidal rate of 5% or less (almost no effect)) | 0 (Herbicidal rate of 5% or less (almost no effect)) | 0 (Herbicidal rate of 5% or less (almost no effect)) | 0 (Herbicidal rate of 5% or less (almost no effect)) | 0 (Herbicidal rate of 5% or less (almost no effect)) | 0 (Herbicidal rate of 5% or less (almost no effect)) | 0 (Herbicidal rate of 5% or less (almost no effect)) | 0 (Herbicidal rate of 5% or less (almost no effect)) | 0 (Herbicidal rate of 5% or less (almost no effect)) | 0 (Herbicidal rate of 5% or less (almost no effect)) | 0 (Herbicidal rate of 5% or less (almost no effect)) | 0 (Herbicidal rate of 5% or less (almost no effect)) | 0 (Herbicidal rate of 5% or less (almost no effect)) | 0 (Herbicidal rate of 5% or less (almost no effect)) | 0 (Herbicidal rate of 5% or less (almost no effect)) | herbicidal effect grade, J: blackgrass (blackgrass [19]): 0 (Herbicidal rate of 5% or less (almost no effect)); herbicidal effect grade, K: Italian ryegrass (Italian ryegrass [20]): 0 (Herbicidal rate of 5% or less (almost no effect)); herbicidal effect grade, L: windgrass (windgrass [21]): 0 (Herbicidal rate of 5% or less (almost no effect)); herbicidal effect grade, M: velvetleaf (velvetleaf [22]): 0 (Herbicidal rate of 5% or less (almost no effect)); herbicidal effect grade, N: redroot pigweed (redroot pigweed [23]): 0 (Herbicidal rate of 5% or less (almost no effect)); herbicidal effect grade, O: lambsquarters (lambsquarters [24]): 0 (Herbicidal rate of 5% or less (almost no effect)); herbicidal effect grade, P: chickweed (chickweed [25]): 5 (Herbicidal rate of 90% or more (almost completely withered)); herbicidal effect grade, Q: false cleavers (false cleavers [26]): 2 (Herbicidal rate of 20% or more and less than 40%); herbicidal effect grade, R: persian speedwell (persian speedwell [27]): 3 (Herbicidal rate of 40% or more and less than 70%)
2 | CON=C(C)c1ccc(-c2sc3ccccc3c2-c2c(O)c(C)nn(C)c2=O)cc1 [1-043] | 5 (Herbicidal rate of 90% or more (almost completely withered)) | 5 (Herbicidal rate of 90% or more (almost completely withered)) | 0 (Herbicidal rate of 5% or less (almost no effect)) | 0 (Herbicidal rate of 5% or less (almost no effect)) | 5 (Herbicidal rate of 90% or more (almost completely withered)) | 3 (Herbicidal rate of 40% or more and less than 70%) | 0 (Herbicidal rate of 5% or less (almost no effect)) | 0 (Herbicidal rate of 5% or less (almost no effect)) | 5 (Herbicidal rate of 90% or more (almost completely withered)) | 0 (Herbicidal rate of 5% or less (almost no effect)) | 0 (Herbicidal rate of 5% or less (almost no effect)) | 5 (Herbicidal rate of 90% or more (almost completely withered)) | 5 (Herbicidal rate of 90% or more (almost completely withered)) | 4 (Herbicidal rate of 70% or more and less than 90%) | 0 (Herbicidal rate of 5% or less (almost no effect)) | 4 (Herbicidal rate of 70% or more and less than 90%) | 4 (Herbicidal rate of 70% or more and less than 90%) | 4 (Herbicidal rate of 70% or more and less than 90%) | 3 (Herbicidal rate of 40% or more and less than 70%) | 2 (Herbicidal rate of 20% or more and less than 40%) | herbicidal effect grade, J: blackgrass (blackgrass [19]): 4 (Herbicidal rate of 70% or more and less than 90%); herbicidal effect grade, K: Italian ryegrass (Italian ryegrass [20]): 5 (Herbicidal rate of 90% or more (almost completely withered)); herbicidal effect grade, L: windgrass (windgrass [21]): 1 (Herbicidal rate of 5% or more and less than 20%); herbicidal effect grade, M: velvetleaf (velvetleaf [22]): 5 (Herbicidal rate of 90% or more (almost completely withered)); herbicidal effect grade, N: redroot pigweed (redroot pigweed [23]): 5 (Herbicidal rate of 90% or more (almost completely withered)); herbicidal effect grade, O: lambsquarters (lambsquarters [24]): 4 (Herbicidal rate of 70% or more and less than 90%); herbicidal effect grade, P: chickweed (chickweed [25]): 5 (Herbicidal rate of 90% or more (almost completely withered)); herbicidal effect grade, Q: false cleavers (false cleavers [26]): 2 (Herbicidal rate of 20% or more and less than 40%); herbicidal effect grade, R: persian speedwell (persian speedwell [27]): 5 (Herbicidal rate of 90% or more (almost completely withered))
